Source: US20190365927A1, “COMPOSITION FOR PHOTODYNAMIC THERAPY USING GENE EXPRESSING FLUORESCENT PROTEIN AND PHOTOSENSITIZER, AND PHOTODYNAMIC THERAPY METHOD USING SAME” (priority 2017, published 2019)

Key:
[1] = tested on: eGFP+ and eGFP− H460 and B16F10 tumors; test: Tumor-transplanted animal test (cFRET PDT); format: in vivo, mice
Procedure: B 16F10 and GFP-B16-F0 Melanoma cells were harvested using a cell lifter and were resuspended in serum-free DMEM. Approximately 2×10^6/100 μL of B16F10 and GFP-B16-F0 melanoma cells were subcutaneously injected into both sides of female C57BL/6 mice. After 10 to 15 days, mice were divided into 4 groups based on the mean tumor diameter when the mean tumor diameter reached a minimum of 0.3 cm. The mice were then randomly divided into 4 groups (n=5 per group). Control animals received 0.9% saline instead of chemical substance.
In the experimental group, RB ([…], 53 nM/mL) was intravenously administered thereto twice a week, and blue light (2 min) was irradiated to the tumor site in 4 hours after the injection. The mouse body weight and tumor volume were measured twice a week. Three weeks later, the mice were euthanized. Tumors were removed therefrom and fixed to 10% neutral buffered formalin. The next day, the image was captured. Similar experiments were performed on GFP+ and GFP-H460 cells. About 2×10^6/100 μL of cells were injected subcutaneously into both sides thereof.

Lgr5+ cells = test: cFRET PDT of colon polyps in azoxymethane/DSS-treated GFP-Lgr5 mice; format: in vivo, mouse; conditions: FIG. 4E
Procedure: To generate sporadic tumors, azoxymethane (10 mg/kg) was intraperitoneally injected into wild-type mice or GFP-Lgr5 mice. In one week after injection, mice were given 2% DSS as drinking water for 7 days. The next 7 days, the mice were given water normally. This DSS application cycle was repeated three times. Mice were randomly divided into 4 groups (n=5 per group).
Another group of 5 mice as wild-type and GFP-Lgr5 mice was set to a group that was not chemically treated. RB was intravenously injected (50 nM/mL, 0.75 ml/kg) into the wild type and GFP-Lgr5 mice of each experimental group twice a week for 7 weeks. And, in 4 hours after the RB injection, blue light (2 min) irradiation was performed via an anal penetration.
Polyp growth was monitored by endoscopy via polyp diameter measurements. After anesthesia, the mice were placed on the stage for colonoscopy. […] Each image was captured by capturing the image from the recorded video file using frame-extraction software. The tumor size was measured from the images (width×height×2). The distance-dependent magnification of the colonoscopy was calculated by imaging using a ruler in the same field.
To compare tumor sizes before and after FR-PDT, well-isolated tumors were selected. The locomotion path used in […] was recorded in detail for each tumor. The tumor location is determined based on the structure of the surrounding tissue. […]

eGFP+-Lgr5+ cells = test: Visualization of in vivo cell death with FLIVO probe; parameters: species or system mouse; conditions: Lgr5-EGFP-IRES-creERT2 knock-in mice, RB treatment and laser light irradiation
Procedure: To measure cell death in live animals, FLIVO™ probes were diluted with PBS containing 1% DMSO at doses according to animal weight. The fluorescent red probe FLIVO™ (Immunochemistry Technologies LLC, Abcys SA, Paris, France) was intravenously injected into wild type and GFP-Lgr5 mice. The mouse was euthanized after 1 hour and the colon tissue was separated therefrom. Fluorescent signals from FLIVO™ were imaged using a confocal microscope.

[2] = tested on: GFP+ and GFP− NCI-H460 cells; test: In vitro fluorescence intensity measurement after blue light irradiation (FRET); format: cell-based, human; conditions: RB 0, 5, 10, 50 uM, blue laser light 473 nm, FIG. 15
Procedure: Fluorescent intensities of GFP− and GFP+ cells after blue light irradiation were measured in the presence or absence of RB. The specific experimental procedure is as follows.
1×10^6 cells of GFP− and GFP+ NCI-H460 cell lines as produced by the method described in the 1-1 were cultured in a 75 cm^2 cell culture dish containing RPMI-1640 medium supplemented with 10% FBS. After 12 hours, the culture medium of the cell line was replaced with RPMI-1640 medium without FBS. Then, RBs of various concentrations (0 uM, 5 uM, 10 uM, 50 uM) were added thereto. The culturing was done for 4 hours to accumulate RB in the cells. Then, the cells were obtained by centrifugation. Pellets of each cell group were suspended in 1 ml PBS. Then, the cell was irradiated with blue laser light (473 nm, radiation dose rate=80 mW/cm^2). The light-emission spectrum of each cell group was measured using a spectrofluorometer (JASCO Inc.). Measurements in each group were repeated 5 times. The FRET efficiency was calculated by the following equation: […]
F(DA): GFP fluorescence intensity in the presence of RB, and
F(D): GFP fluorescence intensity in the absence of RB.

In the case of `O=C1OC2(c3cc(I)c(O)c(I)c3Oc3c2cc(I)c(O)c3I)c2c(Cl)c(Cl)c(Cl)c(Cl)c21` [RB, rose bengal], the tumor growth ([1]; GFP+ B16F10 cells in mouse, 473 nm laser light, FIG. 3D, 3E) is reported as “remarkable tumor inhibiting effect”, the “eGFP+ cells removed in grafted tumor” value ([1]; mixture of eGFP+ and eGFP− sublines of H460 and B16F10 grafted to mouse, after second round of 473 nm irradiation, FIG. 3B, 3C) is reported as roughly 80% and the polyp growth (Lgr5+ cells; Lgr5-EGFP-IRES-creERT2 knock-in mice compared to wild-type mice, 473 nm laser, 4F) is reported as “polyp growth was inhibited”. For the same molecule, the number of polyps (Lgr5+ cells; cFRET treatment) was “decreased”, the “cell death signal in eGFP+-Lgr5+ cell region versus adjacent low-GFP-expression region” value (eGFP+-Lgr5+ cells) was “stronger” and the “emission intensity at 508 nm (emission peak of GFP)” value [2] was “decreases as the concentration of RB increases”.
